Reference: patent US10245249B2, “Pharmaceutical compositions comprising nitroxyl donors” (Cardioxyl Pharmaceuticals, Inc., priority 2013, dated 2019)

Experiments:
[1] = tested on: beagle dogs; test: Canine peripheral vein toxicity model, 24 hour infusion (clinical pathology markers of inflammation: WBC, fibrinogen, CRP); format: in vivo
Procedure: Key inflammatory markers measured include white blood cells (WBC), fibrinogen, and C-reactive protein (CRP).
After 24 hours of infusion, clinical pathology changes similar to those observed in previous studies using an implanted central catheter were detected.
Studies were conducted in male and female beagle dogs. Animals were allowed free access to drinking water and a commercial canine diet under standard laboratory conditions. Animals were fasted prior to blood sample collections when indicated by the study protocol. Fluorescent lighting was provided via an automatic timer for approximately 12 hours per day. On occasion, the dark cycle was interrupted intermittently due to study-related activities. Temperature and humidity were monitored and recorded daily and maintained to the maximum extent possible between 64° F. to 84° F. and 30% to 70%, respectively. The dogs were acclimated for a period of at least 1 week. During this period, the animals were weighed weekly and observed with respect to general health and any signs of disease. The animals were acclimated to wearing a jacket for at least three days prior to dose administration. Additionally, the animals were also acclimated to wearing an Elizabethan collar (e-collar) during the jacket acclimation.
Animals were catheterized the day prior to dose administration. A percutaneous catheter was placed (using aseptic technique and sterile bandaging) in the cephalic vein distal to the elbow. The animals were free-moving in their cages during continuous infusion dose administration. To facilitate continuous infusion dose administration, the peripheral catheter was attached to an extension set routed underneath a canine jacket and then attached to a tether infusion system. To prevent the animals from accessing/removing the peripherally placed percutaneous catheter, the catheterization site was bandaged using Vet Wrap and an e-collar was placed on the animals for the duration of the treatment (i.e., the catheterized period). During the pretreatment period, the venous catheter was infused continuously at a rate of approximately 2-4 mL/hr with 0.9% sodium chloride for injection, USP (saline) to maintain catheter patency. Prior to dosing, the infusion system was pre-filled (slow bolus infusion) with the respective dosing solution to ensure that dosing began as soon as the infusion pump was started. The infusion line was connected to a reservoir containing the control or test compound and the infusion was started. Test compositions were infused continuously, at a predetermined constant infusion rate (1 or 2 mL/kg/hr), for 24 hours and were compared at molar equivalent dose rates.
A detailed clinical examination of each animal was performed twice daily and body temperature measurements and blood samples for clinical pathology were collected from all animals pre-dose and 6 hours, 12 hours, 24 hours and 72 hours post start of composition infusion. At the termination of the study, all animals were euthanized at their scheduled necropsy and complete necropsy examinations were performed. Selected tissues were collected, fixed and stored for potential future microscopic examination. The cephalic vein containing the infusion catheter was dissected intact along with the brachial vein and examined along its entire length. The location of the catheter tip was marked on the unfixed specimen. After fixation, the specimen was trimmed and processed to slide to provide transverse histologic sections representing the catheter tip and surrounding tissues both proximal and distal to the catheter tip (i.e., 1 cm distal to the catheter tip, at the catheter tip, and 1, 5, 10, 15, and 20 cm proximal to the catheter tip). Relative to the catheter tip, “proximal” was defined as closer to the heart and “distal” was defined as further from the heart.
Each compound was formulated with CAPTISOL® (7% w/v) in sterile water at a pH of 4. […]

[2] = tested on: dogs; test: Canine implanted central catheter 72 hour continuous infusion model (clinical and microscopic pathology of vasculature); format: in vivo
Procedure: To determine the cause of the inflammation and hind limb swelling, a series of 72-hour continuous infusion investigative studies were conducted over the following 6 months. […] The first site of inflammation, the catheter insertion site, caused the dog hind limb swelling and inflammation observed in the early-terminated follow-up study. Increasing infusate pH from 4 to 6 decreased inflammation, improving the inflammatory profile by approximately 3-fold (see FIG. 4).
Confirmation of this was obtained through evaluating the nitroxyl donors through detailed histopathology of the vasculature at the site of insertion of into the femoral vein (15 cm distal to the catheter tip), along the catheter track to the catheter tip, and past the tip downstream 20 cm.
A composite score was calculated from the sum of these findings scores. In FIG. 3, the cumulative histology composite score ranges from 0-2 (low severity) to 11-12 (high severity). […] The NOAEL values determined based on these microscopic pathology markers for a series of nitroxyl donors, expressed in molar equivalent dose rates (μg/kg/min) to CXL-1020, are provided in Table 8.

[3] = In vitro stability (half-life) in human plasma; format: in vitro ADME; conditions: male, human plasma pH 7.4 with anticoagulant, 37° C., read-out: T1/2 (minutes) Human
Procedure: (§1) Certain compounds from Tables 1 and 2 and CXL-1020 were tested for their stability in phosphate buffered saline (PBS) and plasma. The assay system comprised (i) PBS, or plasma from rat, dog or human (at least 3 donors, male, pooled) at pH 7.4, and (ii) for tests conducted in plasma, an anticoagulant (sodium heparin or sodium citrate). Each test compound (5 μM) was incubated in PBS or plasma at 37° C. on a THERMOMIXER® with shaking. Three samples (n=3) were taken at each of seven sampling time points: 0, 10, 30, 60, 90, 180 and 360 minutes. The samples were immediately combined with 3 volumes (i.e., 3 times the volume of PBS or plasma) of acetonitrile containing 1% formic acid and an internal standard to terminate the reaction. AB SCIEX API 3000 LC-MS/MS analysis of the test compounds was performed without a standard curve. Half-lives (T1/2) of the test compounds were determined from graphs of the percent remaining values using the peak area response ratio. For compounds tested multiple times, the value provided in the Table represents an average of the replicate assays.

[4] = tested on: dogs; test: Toxicological profile of compositions formulated at pH 4 or pH 6, 24 hour infusion at 3 μg/kg/min; format: in vivo; conditions: 1:1 molar donor:CAPTISOL, infused at 3 μg/kg/min, FIG. 4
Procedure: For samples at a pH of 4, the compositions were prepared by admixing a 1:1 molar ratio of the nitroxyl donor:CAPTISOL®, lyophilizing the admixture, then diluting the lyophilized admixture into D5W. For samples at a pH of 6, the compositions were prepared by admixing a 1:1 molar ratio of the nitroxyl donor:CAPTISOL®, lyophilizing the admixture, then diluting the lyophilized admixture into D5W with 5 mM potassium phosphate. Compounds were infused at a rate of 3 μg/kg/min.

[5] = In vitro stability (half-life) in dog plasma; format: in vitro ADME; conditions: dog plasma pH 7.4 with anticoagulant, 37° C.; for half-life at 5 μM: male, dog, plasma, pH 7.4, 5 μM, read-out: T1/2 (minutes) Dog
Procedure: as §1

[6] = In vitro stability (half-life) in phosphate buffered saline (PBS) pH 7.4; format: physicochemical; conditions: pH 7.4, 5 μM, PBS pH 7.4, 37° C., read-out: T1/2 (minutes) PBS
Procedure: as §1

[7] = HNO production determined via N2O quantification (GC headspace analysis); format: physicochemical; conditions: PBS, 37° C., 90 minutes incubation
In short: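 Compounds dissolved in argon-purged anhydrous DMF were added to argon-purged PBS in sealed vials at 37° C for the set incubation time; headspace N2O was measured by GC with micro-ECD. N2O gas and CXL-1020 served as standards, and relative N2O yield (%) was calculated per incubation time.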

[8] = In vitro stability (half-life) in rat plasma; format: in vitro ADME; conditions: rat plasma pH 7.4 with anticoagulant, 37° C.
Procedure: as §1

[9] = Exploratory studies on the cause of CXL-1020 side effects (byproduct, alternative short half-life donors); format: in vivo; conditions: studies conducted with the byproduct
Procedure: Exploratory studies were continued to determine the cause of the undesirable side effects of CXL-1020 at the higher, but still clinically desirable, doses. […] Studies were conducted with alternative Nitroxyl donors that were structurally unrelated to CXL-1020 but had similar half-lives for nitroxyl donation (half-lives of about 2 minutes). In all instances, local vascular side effects at the catheter tip were observed.

Row | T1/2 (minutes) Rat ([8]; 5 μM) [min] | half-life at 5 μM ([8]; male, rat, plasma, pH 7.4, 5 μM, read-out: T1/2 (minutes) Rat) [min] | T1/2 (minutes) Dog ([5]; 5 μM) [min] | Compound | NOAEL (μg/kg/min) (actual) ([1]; based on clinical pathology markers (WBC, fibrinogen, CRP), 24 hour infusion, CAPTISOL 7% w/v, pH 4) [µg/kg/min] | NOAEL compared with CXL-1020 ([1]; clinical pathology markers) | NOAEL (μg/kg/min) (molar equivalent to CXL-1020) ([2]; based on microscopic pathology markers (edema, hemorrhage, vascular and perivascular inflammation)) [µg/kg/min] | toxicological profile relative to CXL-1020 ([2]; microscopic pathology, Table 8) | half-life at 5 μM [3] [min] | effect of increasing infusate pH from approximately 4 to approximately 6 on toxicology [4] | half-life at 5 μM [5] [min] | half-life at 5 μM [6] [min] | Relative N2O Yield (90 minutes incubation) [7] [%] | side effects [9]
1 |  |  |  | O=S(=O)(NO)c1ccc(Cl)s1 [Compound 86, 5-Chloro-N-hydroxythiophene-2-sulfonamide] | 3 | significantly higher than that of CXL-1020 | ≥180 | substantially improved toxicological profile relative to CXL-1020 | 18 | improved the toxicology | 12 | 38 |  | 
2 | 35.1 | 35 | 18.5 | O=S(=O)(NO)c1cccc(OC(F)(F)F)c1 [Compound 92, N-Hydroxy-3-(trifluoromethoxy)benzene-1-sulfonamide] |  |  |  |  | 40 |  | 19 | 58 | 59 | 
3 |  |  |  | CS(=O)(=O)c1ccccc1S(=O)O [byproduct of CXL-1020] |  |  |  |  |  |  |  |  |  | negative
